Type in all cases: functional
For assay [1], the system named is Mycobacterium tuberculosis. Kind of assay: Antimycobacterial activity against multidrug-resistant Mycobacterium tuberculosis Praha 131 after 14 days by micromethod. Conditions: Praha 131, 336 h.
The test system of assay [2] is Mycobacterium tuberculosis. The assay is described as follows: Antimycobacterial activity against multidrug-resistant Mycobacterium tuberculosis Praha 4 after 14 days by micromethod. As to conditions: Praha 4, 336 h.
Assay [3] relates to Mycobacterium tuberculosis. Kind of assay: Antimycobacterial activity against multidrug-resistant Mycobacterium tuberculosis 234/2005 after 14 days by micromethod. As to conditions: 234/2005, 336 h.
For assay [4], the system named is Mycobacterium tuberculosis. Kind of assay: Antimycobacterial activity against multidrug-resistant Mycobacterium tuberculosis 8666/2010 after 14 days by micromethod. Conditions: 8666/2010, 336 h.
Assay [5] concerns Mycobacterium tuberculosis. Kind of assay: Antimycobacterial activity against multidrug-resistant Mycobacterium tuberculosis Praha 1 after 14 days by micromethod. As to conditions: Praha 1, 336 h.
The test system of assay [6] is Mycobacterium tuberculosis. Kind of assay: Antimycobacterial activity against multidrug-resistant Mycobacterium tuberculosis 7357/1998 after 14 days by micromethod. Conditions: 7357/1998, 336 h.
Assay [7] relates to Mycobacterium tuberculosis. The assay is described as follows: Antimycobacterial activity against multidrug-resistant Mycobacterium tuberculosis 9449/2007 after 14 days by micromethod. Conditions: 9449/2007, 336 h.
For assay [8], the system named is Mycobacterium tuberculosis. Kind of assay: Antimycobacterial activity against multidrug-resistant Mycobacterium tuberculosis 9449/2007 after 21 days by micromethod. Conditions: 9449/2007, 504 h.
Assay [9] has as its system Mycobacterium tuberculosis. Kind of assay: Antimycobacterial activity against multidrug-resistant Mycobacterium tuberculosis Praha 4 after 21 days by micromethod. Conditions: Praha 4, 504 h.
The test system of assay [10] is Mycobacterium tuberculosis. The assay is described as follows: Antimycobacterial activity against multidrug-resistant Mycobacterium tuberculosis Praha 1 after 21 days by micromethod. As to conditions: Praha 1, 504 h.
The test system of assay [11] is Mycobacterium tuberculosis. Kind of assay: Antimycobacterial activity against multidrug-resistant Mycobacterium tuberculosis 7357/1998 after 21 days by micromethod. Conditions: 7357/1998, 504 h.
Assay [12] concerns Mycobacterium tuberculosis. Kind of assay: Antimycobacterial activity against multidrug-resistant Mycobacterium tuberculosis 8666/2010 after 21 days by micromethod. Conditions: 8666/2010, 504 h.
In assay [13] the test system is Mycobacterium tuberculosis. The assay is described as follows: Antimycobacterial activity against multidrug-resistant Mycobacterium tuberculosis Praha 131 after 21 days by micromethod. As to conditions: Praha 131, 504 h.
For assay [14], the system named is Mycobacterium tuberculosis. The assay is described as follows: Antimycobacterial activity against multidrug-resistant Mycobacterium tuberculosis 234/2005 after 21 days by micromethod. As to conditions: 234/2005, 504 h.

Converted amounts (≈) assume the structure as drawn.

Here are results for 9 compounds from ChEMBL document CHEMBL4002566, “S-substituted 3,5-dinitrophenyl 1,3,4-oxadiazole-2-thiols and tetrazole-5-thiols as highly efficient antitubercular agents” (Eur J Med Chem, 2017).

One may read the MIC as the lowest concentration that inhibits growth of the organism. The low end stands for greater potency, the high end for weaker potency.

On to `CC[C@@H](CO)NCCN[C@@H](CC)CO` [ETHAMBUTOL], for which the MIC in assay [1] came out at 32 µM (≈ 6.54 µg/mL); in assay [2] it was 16 µM (≈ 3.27 µg/mL); in assay [3], 16 µM (≈ 3.27 µg/mL); in assay [4] it was 16 µM (≈ 3.27 µg/mL); in [5], 32 µM (≈ 6.54 µg/mL); in [6] it was 16 µM (≈ 3.27 µg/mL). In assay [7], this compound had an MIC of 8 µM (≈ 1.63 µg/mL).

As for `O=[N+]([O-])c1cc(-n2nnnc2SCc2ccc(Cl)cc2)cc([N+](=O)[O-])c1`, the MIC in [1], in [8], in assay [9], in [2], in [10] and in assay [3] was 0.5 µM (≈ 0.196 µg/mL) in each case. Besides, the MIC in assay [11], in assay [4], in assay [5], in assay [6], in assay [12] and in assay [13] was 0.5 µM (≈ 0.196 µg/mL) each time. For the same compound, the MIC in assay [14] and in assay [7] was 0.5 µM (≈ 0.196 µg/mL) each time.

With `O=[N+]([O-])c1cc(-c2nnc(SCc3ccc(Cl)c(Cl)c3)o2)cc(C(F)(F)F)c1`, the MIC in [1] turned out to be 0.5 µM (≈ 0.225 µg/mL); in assay [8], 0.5 µM (≈ 0.225 µg/mL); in [9], 0.5 µM (≈ 0.225 µg/mL); in assay [2], 0.25 µM (≈ 0.113 µg/mL); in assay [10], 0.5 µM (≈ 0.225 µg/mL); in [3], 0.5 µM (≈ 0.225 µg/mL). In addition, the MIC in assay [11], in assay [4], in assay [5], in assay [6], in [12] and in assay [13] was 0.5 µM (≈ 0.225 µg/mL) throughout. For the same compound, the MIC in assay [14] and in assay [7] was 0.5 µM (≈ 0.225 µg/mL) in each case.

As for `NNC(=O)c1ccncc1` [ISONIAZID], the MIC in [1] was determined as 16 µM (≈ 2.19 µg/mL); in assay [2] it was 16 µM (≈ 2.19 µg/mL); in assay [3], 16 µM (≈ 2.19 µg/mL); in assay [4] it was 32 µM (≈ 4.39 µg/mL); in [5], 16 µM (≈ 2.19 µg/mL); in assay [6] it was 16 µM (≈ 2.19 µg/mL). Also, the MIC in assay [7] is 64 µM (≈ 8.78 µg/mL).

For `O=[N+]([O-])c1cc(-c2nnc(SCc3ccccc3Cl)o2)cc([N+](=O)[O-])c1`, the MIC in assay [1] was found to be 0.06 µM (≈ 0.0236 µg/mL); in assay [8], 0.125 µM (≈ 0.0491 µg/mL); in assay [9] it was 0.06 µM (≈ 0.0236 µg/mL); in assay [2] it was 0.03 µM (≈ 0.0118 µg/mL); in assay [10], 0.125 µM (≈ 0.0491 µg/mL); in assay [3] it was 0.06 µM (≈ 0.0236 µg/mL). In addition, the minimal inhibitory concentration (MIC) in assay [11] amounted to 0.125 µM (≈ 0.0491 µg/mL); in assay [4] it was 0.06 µM (≈ 0.0236 µg/mL); in [5] it was 0.06 µM (≈ 0.0236 µg/mL); in assay [6], 0.06 µM (≈ 0.0236 µg/mL); in assay [12], 0.125 µM (≈ 0.0491 µg/mL); in assay [13] it was 0.125 µM (≈ 0.0491 µg/mL). Besides, the MIC in assay [14] was found to be 0.125 µM (≈ 0.0491 µg/mL); in [7], 0.06 µM (≈ 0.0236 µg/mL).

Consider `O=[N+]([O-])c1cc(-c2nnc(SCc3cccc(Cl)c3)o2)cc([N+](=O)[O-])c1`, for which the MIC in assay [1] stood at 0.03 µM (≈ 0.0118 µg/mL); in assay [8] it was 0.06 µM (≈ 0.0236 µg/mL); in assay [9] it was 0.06 µM (≈ 0.0236 µg/mL); in assay [2] it was 0.03 µM (≈ 0.0118 µg/mL); in assay [10], 0.06 µM (≈ 0.0236 µg/mL); in assay [3] it was 0.03 µM (≈ 0.0118 µg/mL). Further, the MIC in assay [11] was 0.06 µM (≈ 0.0236 µg/mL); in assay [4], 0.03 µM (≈ 0.0118 µg/mL); in [5], 0.03 µM (≈ 0.0118 µg/mL); in assay [6], 0.03 µM (≈ 0.0118 µg/mL); in [12], 0.06 µM (≈ 0.0236 µg/mL); in assay [13], 0.06 µM (≈ 0.0236 µg/mL). The MIC amounted to 0.06 µM (≈ 0.0236 µg/mL) in assay [14] and 0.03 µM (≈ 0.0118 µg/mL) in assay [7].

Turning to `CC1COc2c(N3CCN(C)CC3)c(F)cc3c(=O)c(C(=O)O)cn1c23` (stereo not drawn) [OFLOXACIN], the MIC in assay [1] is 16 µM (≈ 5.78 µg/mL); in [2], > 16 µM; in [3], 0.5 µM (≈ 0.181 µg/mL); in [4], 8 µM (≈ 2.89 µg/mL); in assay [5] it was 1 µM (≈ 0.361 µg/mL); in [6] it was 8 µM (≈ 2.89 µg/mL). In [7], this compound came in with an MIC of 2 µM (≈ 0.723 µg/mL).

Turning to `O=[N+]([O-])c1cc(-c2nnc(SCc3ccccc3)o2)cc(C(F)(F)F)c1`, the MIC in assay [1] came to 1 µM (≈ 0.381 µg/mL); in assay [8], 2 µM (≈ 0.763 µg/mL); in [9] it was 1 µM (≈ 0.381 µg/mL); in [2], 1 µM (≈ 0.381 µg/mL); in [10] it was 1 µM (≈ 0.381 µg/mL); in assay [3], 1 µM (≈ 0.381 µg/mL). Moreover, the MIC in assay [11] amounted to 2 µM (≈ 0.763 µg/mL); in assay [4], 1 µM (≈ 0.381 µg/mL); in assay [5], 1 µM (≈ 0.381 µg/mL); in [6] it was 1 µM (≈ 0.381 µg/mL); in assay [12] it was 2 µM (≈ 0.763 µg/mL); in [13], 2 µM (≈ 0.763 µg/mL). Moreover, the MIC was 1 µM (≈ 0.381 µg/mL) in [14] and 2 µM (≈ 0.763 µg/mL) in assay [7].

With `CO[C@H]1/C=C/O[C@@]2(C)Oc3c(C)c(O)c4c(O)c(c(/C=N/N5CCN(C)CC5)c(O)c4c3C2=O)NC(=O)/C(C)=C\C=C\[C@H](C)[C@H](O)[C@@H](C)[C@@H](O)[C@@H](C)[C@H](OC(C)=O)[C@@H]1C` [RIFAMPIN], the MIC in assay [1], in [2], in [3], in [4], in assay [5] and in assay [6] was > 8 µM throughout. For the same compound, in assay [7], the MIC was > 8 µM.
